SMILES | melting point [°C]
Cc1cn(CC(=O)N(CCNC(=O)OC(C)(C)C)CC(=O)Oc2c(F)c(F)c(F)c(F)c2F)c(=O)[nH]c1=O | 174 to 176
O=C1N(Cc2ccc(OCCO)cc2)c2ccccc2C12COc1cc3c(cc12)OCCO3 (stereo not drawn) | 196 to 197
O=c1oc2ccc(Cl)cc2c(O)c1CCO | 185 to 186
OCc1ccc(-c2cccc(-c3cn([C@H]4CN5CCC4CC5)nn3)c2)s1 | 176
CN1CC(O)N(c2cc(C(C)(C)C)on2)C1=O (stereo not drawn) | 173 to 177
O=[N+]([O-])c1cc(O)ccc1NCCO | 142
NC(=O)CCSC(SCCC(=O)O)c1cccc(SCc2ccc3ccc(Cl)cc3n2)c1 (stereo not drawn) | 141 to 142
CCOC(=O)N(CC(=O)O)C(=O)c1c(Br)ccc2c(C(F)(F)F)c(OC)ccc12 | 167 to 168
CC1(C)CCC(C)(C)c2cc(-c3cc(-c4ccc(C(=O)O)c(O)c4)ccc3-c3ccccc3)ccc21 | 134 to 136
COC(=O)c1ccc(OCCNC(=O)C2Cc3ccccc3N2S(=O)(=O)c2ccc(-c3ccc(F)cc3)cc2)c(Cl)c1 (stereo not drawn) | 84 to 90
CCN(CC)CCN1C(=O)c2cc(N)cc3cc([N+](=O)[O-])cc(c23)C1=O | 174
CCCCc1nc2ccccc2c(=O)n1Cc1ccc(-c2ccccc2-c2nnn[nH]2)cc1 | 180 to 182
CC(C)N1C(=O)NC(c2ccc3c(c2)OCO3)c2cc3c(cc21)OCCO3 (stereo not drawn) | 197 to 200
ON=c1cc(-c2cn3cccc3cn2)oc2ccc(OCCc3ccc(F)cc3)cc12 | 248 to 250
CCCc1c(OCCCCc2ccc3c(Cl)c(OC)c(OC)c(Cl)c3c2)ccc(C(=O)OCc2ccccc2)c1O | 66 to 68
CN1C(=O)N(c2ccc(C(=O)O)cc2)S(=O)(=O)c2ccc(OCC3CCCCC3)cc21 | 240 to 241
FC1=Cc2ccccc2Nc2ccccc21 | 69 to 72
CCc1scc(C(=O)OC)c1NC(C)=O | 85 to 86
CC1(C)CCC(C)(C)c2cc(-c3cc(-c4ccc(C(=O)O)cc4)ccc3OCCCCNC3CC3)ccc21 | 160
CC(C)OC(=O)N1CCC(c2ccc3nc(-c4ccc(S(C)(=O)=O)cc4F)sc3c2)CC1 | 163 to 166
CN(C)C1CCC(Nc2nc3cc(Cl)c(Cl)cc3nc2-c2ccncc2)CC1 (stereo not drawn) | 183 to 185

SMILES | melting point [°C]
Cc1cc(C#N)cc(CBr)c1 | 80 to 81
COC(=O)c1ncn2c1C(C)N=C(c1ccccc1F)c1cc(Cl)ccc1-2 (stereo not drawn) | 190 to 191
Cc1ccc(S(=O)(=O)Cc2ccc([N+](=O)[O-])cc2)cc1 | 188 to 190
CC1(C)Oc2ccc(C#N)cc2C(OC(=O)C2CCCN2S(=O)(=O)c2cccc([N+](=O)[O-])c2)C1Br (stereo not drawn) | 171 to 174
CN1CCN(Cc2ccc(Cl)cc2Cl)C(C2=NCCN2)C1 (stereo not drawn) | 167 to 169
CCCCn1c(=S)[nH]c2sccc2c1=O | 200 to 203
O=C1NCC(c2ccccc2)SCC1N1C(=O)c2ccccc2C1=O (stereo not drawn) | 240 to 247
CC(C)Oc1cc(-n2c(=O)c3c(n(C)c2=O)CCC3)c(F)cc1Cl | 105 to 107
CCOC(=O)c1c(N2CCN(C(=O)c3cccs3)CC2)c2cnccc2n(CC(=O)c2ccccc2)c1=O | 157
COc1cc(C(C)=O)ccc1OCCN1CCC(C(O)(c2ccc(F)cc2)c2ccc(F)cc2)CC1 | 131 to 135
Cc1cc(C2(C(F)(F)F)CC(n3cncn3)=NO2)ccc1NC(=O)c1cccc(I)c1C(=O)NC(C)C (stereo not drawn) | 131 to 133
COC(=O)c1cc2cc(OC)c(OC)cc2nc1/N=C/N(C)C | 166 to 168
O=[N+]([O-])c1ccc(N2CCN(Cc3ccccc3)S2(=O)=O)cc1 | 164 to 165
Clc1ccc(C(Cl)Cl)cn1 | 60
O=C(Oc1cccc2c(-c3ccccc3)c3cccc(OC(=O)C4CCCCC4)c3c(OC(=O)C3CCCCC3)c12)C1CCCCC1 | 235
Cc1ccc(-c2ccc3c(c2)OCO3)cc1 | 57 to 60
CN(C)c1cccc2c(S(=O)(=O)N3CCC(NC(=O)Nc4ccc(OC(F)(F)F)cc4)CC3)cccc12 | 102 to 107
CC1(CN2CCN(N=Cc3ccc(OC(F)(F)F)cc3)CC2)Cn2cc([N+](=O)[O-])nc2O1 (stereo not drawn) | 189 to 191
CCCCCCCCCCCCCCCCC[C@H](O)C[C@@H]1OC(=O)[C@H]1CC | 80 to 82
O=C(Nc1cccc(C(F)(F)F)c1)NC1N=C(c2ccccc2F)c2ccccc2N(CC(=O)N2CC3CCC(CC3)C2)C1=O (racemic) | 226 to 227
N#Cc1ccc(C[C@]23C[C@@H](O)CN2C(=O)N(c2cc(Cl)nc(Cl)c2)C3=O)cc1 | 97.6

Results, then the compound that gave them:

melting point [°C] | SMILES
220 to 222 | CC(C)c1cc(C=CC(=O)Nc2cccc(C(=O)O)c2)oc1C(C)C
131 to 132 | COC(=O)C(C)(N)Cc1c[nH]c2ccc(OC)cc12 (racemic)
98 to 100 | O=S(=O)(Nc1ccccc1)c1cccc(Br)c1
174 to 175 | COc1cc2ncnc(N3CCc4c(C)cccc43)c2cc1OC
66 to 67 | CN(CCCCN1C(=O)C=CC1=O)c1ccccc1
163 | CCCCC(=O)Nc1c(N)ccnc1Cl
208 to 210 | COc1nc(NC(=O)Nc2ccccc2OC)nc(N(CCC(=O)O)Cc2ccc(Cl)c(Cl)c2)n1
> 320 | O=c1c2c(Cc3ccccc3)n[nH]c2c2cccnc2n1-c1ccc(O)cc1
246 | CNS(=O)(=O)c1cc(C(=O)c2c(C)[nH]c3ccccc23)ccc1Cl
56 to 57 | OC(CCCl)c1ccccc1 (stereo not drawn)
119 to 120 | CNc1nc(N2CCN(Cc3ccccc3)CC2)ncc1CCO
139 to 140 | COC(=O)C=Cc1ccc(O)cc1
149 to 150 | CCCCOc1c(CO)n(CC(C)(C)C)c(=O)c2cc(F)ccc12
40 to 50 | C=CCNCCC(OC)(c1ccccc1)c1ccccc1
56 to 57 | Cc1nn(C)c(Oc2ccccn2)c1C=O
121 to 122 | Cc1ccc(-c2nc3ccccc3o2)cc1F
222 to 224 | CN(C)C(=O)N(Cc1ccccc1)C(=O)c1cccc(-c2nc(=O)c3ccccc3s2)n1
202 to 203 | CC(=NNC(=O)c1ccccc1)c1cccc(Cl)c1O
144 to 145 | COc1ccc(-c2nn(Cc3ccccc3)c(=O)c3ccccc23)c(OC)c1OC
164 to 165 | Cn1cc(-c2ccc(Cl)c(C(F)(F)F)c2)c(=O)c(C(F)(F)F)c1
83 to 84 | CCOC(=O)c1cc(=O)c2cc(OCCC(C)C)ccc2s1
220 | CCn1c(N)c(-c2nccn2COCC[Si](C)(C)C)c(=O)c2ccc(-c3ccc(CC(=O)O)cc3)nc21
117 to 119 | COc1ccc(C(=O)C(=O)c2ccncc2)cc1OC1CCCC1
178 to 179 | Cc1nc(N2CCN(Cc3ccccc3)C2=O)sc1C(=O)NCc1cccc(Cl)c1
209 to 210 | O=C(NCS(=O)(=O)c1ccccc1)c1cc(Cl)nc(Cl)c1
224 to 225 | O=C(O)C=CC(=O)Nc1ccc2ncnc(Nc3cccc(Br)c3)c2c1
